The text below walks through data of ChEMBL document CHEMBL5352440, “Promising antimalarials targeting apicoplast DNA polymerase from Plasmodium falciparum” (Eur J Med Chem, 2022).

Activity calls are given as the source filed them. No cut-off for these calls is given here.

Assay [1] addresses DNA polymerase I (Escherichia coli) (UniProt P00582). The assay is described as follows: Inhibition of Escherichia coli DNA polymerase I.
Assay [2] concerns Plasmodium falciparum. Nature of the assay: Non-competitive inhibition of Plasmodium falciparum apicoplast DNA polymerase assessed as inhibition constant for lower affinity site in presence of various concentrations of dNTPs by molecular beacon assay.
Assay [3] deals with Plasmodium falciparum. Nature of the assay: Non-competitive inhibition of Plasmodium falciparum apicoplast DNA polymerase assessed as inhibition constant for higher affinity site in presence of various concentrations of dNTPs by molecular beacon assay.
Assay [4] has as its system Plasmodium falciparum. Nature of the assay: Antiparasitic activity against Plasmodium falciparum NF54 with attB plasmid infected in red blood cells assessed as reduction in parasitemia incubated for 96 hrs in presence of isopentenyl pyrophosphate by flow cytometry analysis. The format is functional, organism-based. The note with it: Red blood cell. For orientation: In flow cytometry, cells or beads pass a laser one at a time.

For assay [5], the system named is Plasmodium falciparum. Nature of the assay: Antiparasitic activity against Plasmodium falciparum NF54 with attB plasmid infected in red blood cells assessed as reduction in parasitemia incubated for 72 hrs. The assay is classed as functional, organism-based, Red blood cell. As to conditions: NF54, Erythrocyte.
Assay [6] concerns Plasmodium falciparum. The assay is described as follows: Inhibition of plasmodium falciparum apicoplast DNA polymerase exonuclease activity using blunt-ended double stranded oligonucleotide with 2-aminopurine at position 1 on 3' end as substrate assessed as exonuclease specific activity at 100 uM (reference value: 2.2 +/- 0.09%).
For assay [7], the system named is Plasmodium falciparum. The assay is described as follows: Inhibition of plasmodium falciparum apicoplast DNA polymerase exonuclease activity using blunt-ended double stranded oligonucleotide with 2-aminopurine at position 1 on 3' end as substrate assessed as reduction in exonuclease proofreading activity at 3'-5' direction at 100 uM relative to control.
For assay [8], the target named is T1, DNA-directed DNA polymerase (Enterobacteria phage T4) (UniProt P04415).
T1 sequence (whole entry): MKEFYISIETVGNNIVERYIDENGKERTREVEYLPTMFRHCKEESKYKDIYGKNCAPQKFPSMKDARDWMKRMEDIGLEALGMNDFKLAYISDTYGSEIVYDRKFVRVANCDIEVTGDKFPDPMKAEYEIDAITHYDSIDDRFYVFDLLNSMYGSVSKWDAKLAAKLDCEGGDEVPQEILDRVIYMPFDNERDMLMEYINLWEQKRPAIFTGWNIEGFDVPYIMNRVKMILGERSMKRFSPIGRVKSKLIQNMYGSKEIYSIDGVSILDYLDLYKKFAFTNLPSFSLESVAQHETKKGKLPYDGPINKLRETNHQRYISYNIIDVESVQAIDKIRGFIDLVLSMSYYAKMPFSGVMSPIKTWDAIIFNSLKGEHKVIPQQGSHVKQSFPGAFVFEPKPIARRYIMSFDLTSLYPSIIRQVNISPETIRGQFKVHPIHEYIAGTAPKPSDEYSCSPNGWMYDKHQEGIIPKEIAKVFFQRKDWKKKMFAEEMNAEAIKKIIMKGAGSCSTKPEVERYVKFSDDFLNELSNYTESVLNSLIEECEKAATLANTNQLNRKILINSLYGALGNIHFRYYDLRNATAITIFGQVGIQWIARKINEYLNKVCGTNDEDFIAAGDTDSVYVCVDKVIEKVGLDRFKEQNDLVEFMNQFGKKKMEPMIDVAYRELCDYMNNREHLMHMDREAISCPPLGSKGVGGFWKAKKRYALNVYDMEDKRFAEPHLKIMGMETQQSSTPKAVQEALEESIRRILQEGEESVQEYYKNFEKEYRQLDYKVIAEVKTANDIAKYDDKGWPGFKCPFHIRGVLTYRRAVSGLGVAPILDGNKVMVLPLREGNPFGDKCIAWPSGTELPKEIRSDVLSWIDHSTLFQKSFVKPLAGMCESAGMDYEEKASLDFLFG
The assay is described as follows: Inhibition of Enterobacteria T4 phage DNA polymerase.

The test system of assay [9] is Plasmodium falciparum. The assay is described as follows: Non-competitive inhibition of exonuclease deficient Plasmodium falciparum apicoplast DNA polymerase harboring wild type W512 residue assessed as inhibition constant for higher affinity site in presence of dNTPs.
In assay [10] the test system is Plasmodium falciparum. Nature of the assay: Non-competitive inhibition of exonuclease deficient Plasmodium falciparum apicoplast DNA polymerase W512A mutant assessed as inhibition constant for higher affinity site in presence of dNTPs.
Assay [11] has as its system Plasmodium falciparum. Nature of the assay: Non-competitive inhibition of exonuclease deficient Plasmodium falciparum apicoplast DNA polymerase W512A mutant assessed as inhibition constant for lower affinity site in presence of dNTPs.
In assay [12] the test system is Plasmodium falciparum. Nature of the assay: Non-competitive inhibition of exonuclease deficient Plasmodium falciparum apicoplast DNA polymerase harboring wild type W512 residue assessed as inhibition constant for lower affinity site in presence of dNTPs.
Assay [13] has as its system Plasmodium falciparum. Nature of the assay: Competitive inhibition of Plasmodium falciparum apicoplast DNA polymerase assessed as inhibition constant for lower affinity site in presence of various concentrations of dNTPs by molecular beacon assay.

In general, inhibition refers to the drop in the measured response relative to a control, in per cent. As usually defined, the EC50 is the concentration at which the effect is half-maximal.

Sequence of DNA polymerase I (Escherichia coli) (P00582 whole entry): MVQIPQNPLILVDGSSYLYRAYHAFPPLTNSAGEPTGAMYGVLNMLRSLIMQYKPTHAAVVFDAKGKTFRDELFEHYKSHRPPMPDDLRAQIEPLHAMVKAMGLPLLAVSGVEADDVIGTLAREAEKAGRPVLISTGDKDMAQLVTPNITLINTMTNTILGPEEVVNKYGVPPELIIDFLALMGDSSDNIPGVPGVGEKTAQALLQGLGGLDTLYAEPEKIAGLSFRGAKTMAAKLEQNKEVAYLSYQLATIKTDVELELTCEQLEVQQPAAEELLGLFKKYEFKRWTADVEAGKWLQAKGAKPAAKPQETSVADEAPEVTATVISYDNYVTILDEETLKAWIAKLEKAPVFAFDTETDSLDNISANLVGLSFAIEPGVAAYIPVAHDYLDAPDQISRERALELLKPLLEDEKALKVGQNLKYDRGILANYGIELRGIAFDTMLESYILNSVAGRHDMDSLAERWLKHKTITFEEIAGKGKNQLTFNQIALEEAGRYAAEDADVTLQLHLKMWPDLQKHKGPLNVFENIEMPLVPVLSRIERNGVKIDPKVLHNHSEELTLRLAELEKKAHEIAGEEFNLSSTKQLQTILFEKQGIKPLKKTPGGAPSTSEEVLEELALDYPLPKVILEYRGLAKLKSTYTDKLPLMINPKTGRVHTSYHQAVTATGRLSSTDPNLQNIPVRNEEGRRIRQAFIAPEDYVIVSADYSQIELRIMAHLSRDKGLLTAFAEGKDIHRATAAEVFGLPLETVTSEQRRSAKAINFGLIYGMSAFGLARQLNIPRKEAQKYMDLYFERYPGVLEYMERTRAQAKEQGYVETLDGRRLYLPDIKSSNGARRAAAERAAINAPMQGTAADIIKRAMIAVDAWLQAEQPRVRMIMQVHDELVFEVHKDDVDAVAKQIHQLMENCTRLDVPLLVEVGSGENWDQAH

On to `CC(C)(C)c1ccc(C(=O)Nc2c3c(nn2-c2cccc(Cl)c2)CSC3)cc1`, for which the inhibition entry in assay [1] and in [8] was “inactive” in each case. Moreover, the KiL in the assay on Plasmodium falciparum [2] came out at 15.9 µM. Also, the KiH in the assay on Plasmodium falciparum [3] stood at 5.98 µM. In addition, the outcome with Plasmodium falciparum [4] was Active. Also, the EC50 in the assay on Plasmodium falciparum [5] came to 4 µM. The Activity in the assay with Plasmodium falciparum [6] amounted to 1.6 U. For the same molecule, in the assay with Plasmodium falciparum [7], the inhibition is less than 50%.

With `CC(C)(C)c1ccc(NC(=O)Nc2c3c(nn2-c2cccc(Cl)c2)CSC3)cc1`, the inhibition entry in assay [1] and in assay [8] was “inactive” each time. The results for the KiH with Plasmodium falciparum [9], with Plasmodium falciparum [3] and in the assay on Plasmodium falciparum [10] were 2.73 µM, 2.73 µM and 4.65 µM, respectively. Besides, the KiL with Plasmodium falciparum [2] was found to be 12.2 µM; with Plasmodium falciparum [11], 6.8 µM; in the assay on Plasmodium falciparum [12], 12.2 µM. Moreover, the EC50 in the assay with Plasmodium falciparum [5] was 1.3 µM. Besides, the Activity in the assay on Plasmodium falciparum [6] turned out to be 2.6 U. For the same molecule, the inhibition in the assay with Plasmodium falciparum [7] was less than 50%.

As to `CC(C)(C)c1ccc(NC(=O)Nc2c3c(nn2-c2cccc(C(F)(F)F)c2)CSC3)cc1`, the inhibition entry in assay [1] and in assay [8] was “inactive” throughout. The results for the KiH with Plasmodium falciparum [3] and in the assay with Plasmodium falciparum [13] were 2.17 µM and 11.9 µM, respectively. In addition, in the assay on Plasmodium falciparum [5], the EC50 is 4.3 µM. Moreover, in the assay with Plasmodium falciparum [6], the Activity is 1.4 U. The inhibition in the assay on Plasmodium falciparum [7] is less than 50%.
